Assay results taken from ChEMBL document CHEMBL2413034, “Novel β-dicarbonyl derivatives as inhibitors of aminopeptidase N (APN)” (Bioorg Med Chem Lett, 2013).
Activity calls are given as the source filed them. No cut-off for these calls is given here.

Experiments:
[1] = target: Histone deacetylase 1/3/5/8 (Homo sapiens, UniProt Q13547+O15379+Q9UQL6+Q9BY41); experiment: Inhibition of HDAC1/HDAC3/HDAC5/HDAC8 in human HeLa nuclear extract using Boc-Lys(acetyl)-AMC as substrate incubated for 5 mins prior to substrate measured after 30 mins by spectrophotometric analysis; format: protein assay
[2] = target: T1, Aminopeptidase N (Sus scrofa, UniProt P15145); experiment: Inhibition of pig microsomal aminopeptidase N using L-leu-p-nitroanilide as substrate incubated for 5 mins prior to substrate addition measured after 30 mins by spectrophotometric analysis
T1 sequence (P15145 whole entry): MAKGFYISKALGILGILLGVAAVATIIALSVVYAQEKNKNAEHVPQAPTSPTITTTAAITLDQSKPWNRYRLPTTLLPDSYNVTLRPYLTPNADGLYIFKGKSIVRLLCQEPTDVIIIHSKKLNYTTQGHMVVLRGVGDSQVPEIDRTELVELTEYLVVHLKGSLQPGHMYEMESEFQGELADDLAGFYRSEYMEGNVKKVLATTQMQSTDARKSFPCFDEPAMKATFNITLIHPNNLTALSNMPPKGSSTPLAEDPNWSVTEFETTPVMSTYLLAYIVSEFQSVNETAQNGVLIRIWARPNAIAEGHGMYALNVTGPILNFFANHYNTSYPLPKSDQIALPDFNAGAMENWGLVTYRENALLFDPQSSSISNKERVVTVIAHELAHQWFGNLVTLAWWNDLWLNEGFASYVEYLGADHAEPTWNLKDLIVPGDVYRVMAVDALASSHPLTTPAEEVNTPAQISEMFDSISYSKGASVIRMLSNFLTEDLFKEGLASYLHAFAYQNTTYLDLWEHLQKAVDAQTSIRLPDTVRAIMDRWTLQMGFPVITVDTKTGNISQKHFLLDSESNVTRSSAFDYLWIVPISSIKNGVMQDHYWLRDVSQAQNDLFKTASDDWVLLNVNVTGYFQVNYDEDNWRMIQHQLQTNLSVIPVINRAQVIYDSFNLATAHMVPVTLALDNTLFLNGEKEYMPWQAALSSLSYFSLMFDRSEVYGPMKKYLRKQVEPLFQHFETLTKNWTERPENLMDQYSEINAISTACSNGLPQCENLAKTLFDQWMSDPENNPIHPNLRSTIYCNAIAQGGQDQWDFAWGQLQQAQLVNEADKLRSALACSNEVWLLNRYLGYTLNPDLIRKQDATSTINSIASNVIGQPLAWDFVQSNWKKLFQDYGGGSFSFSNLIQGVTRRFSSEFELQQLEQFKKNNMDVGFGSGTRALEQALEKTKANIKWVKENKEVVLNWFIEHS

[3] = Metal chelating activity assessed as affinity to Zn2+ by spectrophotometry; format: functional

IC50 [1] [µM] | IC50 [2] [µM] | SMILES | Activity [3]
> 1000 | 984 | COC(=O)CC(=O)[C@H](N)Cc1ccccc1 | –
> 1000 | 1.41 | CC(C)C[C@H](NC(=O)CC(=O)[C@H](N)Cc1ccccc1)C(=O)O | Active
> 1000 | 5.04 | COC(=O)[C@H](CC(C)C)NC(=O)CC(=O)[C@H](N)Cc1ccccc1 | –
> 1000 | > 1000 | COC(=O)CC(=O)[C@@H](Cc1ccccc1)NC(=O)OC(C)(C)C | –
> 1000 | 7.02 | COC(=O)[C@H](Cc1ccccc1)NC(=O)CC(=O)[C@H](N)Cc1ccccc1 | –
> 1000 | – | CC(C)C[C@H](NC(=O)[C@@H](O)[C@H](N)Cc1ccccc1)C(=O)O [UBENIMEX] | –
> 1000 | > 1000 | COC(=O)[C@H](CC(C)C)NC(=O)CC(=O)[C@@H](Cc1ccccc1)NC(=O)OC(C)(C)C | –
> 1000 | 3.82 | N[C@H](Cc1ccccc1)C(=O)CC(=O)N[C@H](C(=O)O)c1ccccc1 | –
> 1000 | > 1000 | COC(=O)[C@@H](NC(=O)CC(=O)[C@@H](Cc1ccccc1)NC(=O)OC(C)(C)C)c1ccccc1 | –
> 1000 | > 1000 | CC(C)(C)OC(=O)N[C@H](Cc1ccccc1)C(=O)CC(=O)OCc1ccccc1 | –
> 1000 | 711 | N[C@H](Cc1ccccc1)C(=O)CC(=O)OCc1ccccc1 | –
– | 15.5 | COc1cc(/C=C/C(=O)CC(=O)/C=C/c2ccc(O)c(OC)c2)ccc1O [CURCUMIN] | –
> 1000 | 6.03 | COC(=O)[C@@H](NC(=O)CC(=O)[C@H](N)Cc1ccccc1)c1ccccc1 | –
> 1000 | 4.73 | N[C@H](Cc1ccccc1)C(=O)CC(=O)N[C@@H](Cc1ccccc1)C(=O)O | –
> 1000 | > 1000 | COC(=O)[C@H](Cc1ccccc1)NC(=O)CC(=O)[C@@H](Cc1ccccc1)NC(=O)OC(C)(C)C | –
